This experiment addresses purified human Factor XIa (Homo sapiens (Human), UniProt P03951). The experiment is described as follows: Factor XIa enzyme inhibition assay (chromogenic substrate S-2366).
Setting [1] is: read-out: Factor XIa Ki, measured at 25° C.
The mark [2] stands for this setting: read-out: Factor XIa Ki, measured at 25° C., TFA salt.

As a reminder, the pKi is the negative decadic logarithm of the Ki, by convention in mol/L.

pKi: −log10 of the molar value. Counter-ions that a name gives are not always drawn. Like-named read-outs stand apart in the source and are kept apart here. Where only a bound is given, the exact number is not on record here.

purified human Factor XIa, sequence (P03951 388-625): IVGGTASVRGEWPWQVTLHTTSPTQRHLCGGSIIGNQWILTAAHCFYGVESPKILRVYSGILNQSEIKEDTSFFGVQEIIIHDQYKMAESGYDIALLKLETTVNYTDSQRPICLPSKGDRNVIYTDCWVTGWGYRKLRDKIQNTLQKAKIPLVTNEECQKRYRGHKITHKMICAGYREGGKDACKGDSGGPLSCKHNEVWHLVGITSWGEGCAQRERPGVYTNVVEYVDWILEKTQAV
purified human Factor XIa, sequence (P03951 19-387 partner): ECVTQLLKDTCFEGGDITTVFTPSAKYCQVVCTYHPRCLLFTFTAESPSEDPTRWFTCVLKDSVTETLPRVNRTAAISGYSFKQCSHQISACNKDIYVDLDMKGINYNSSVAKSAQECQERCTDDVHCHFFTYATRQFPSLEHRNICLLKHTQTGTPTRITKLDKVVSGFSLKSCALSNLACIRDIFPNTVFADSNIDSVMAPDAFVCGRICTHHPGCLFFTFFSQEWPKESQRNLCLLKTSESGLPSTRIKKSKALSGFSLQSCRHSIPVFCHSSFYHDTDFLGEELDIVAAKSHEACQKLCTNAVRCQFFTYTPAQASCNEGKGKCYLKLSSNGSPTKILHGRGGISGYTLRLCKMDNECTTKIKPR

For `Cn1ncc2c(-c3cccc4c3CCN(C(=O)c3cn(-c5cccc(Cl)c5F)nn3)C4C(=O)Nc3ccc(C(=O)O)cc3)cccc21` (stereo not drawn) [Example 169, 4-(2-(1-(3-chloro-2-fluorophenyl)-1H-1,2,3-triazole-4-carbonyl)-5-(1-methyl-1H-indazol-4-yl)-1,2,3,4-tetrahydroisoquinoline-1-carboxamido)benzoic acid], the pKi under setting [1] is above 8.30. Same read-out and setting: the figure for `Cn1ncc2ccc(-c3cccc4c3CCN(C(=O)c3cn(-c5cccc(Cl)c5F)nn3)C4C(=O)Nc3ccc(C(=O)O)cc3)cc21` (stereo not drawn) [Example 170, 4-(2-(1-(3-chloro-2-fluorophenyl)-1H-1,2,3-triazole-4-carbonyl)-5-(1-methyl-1H-indazol-6-yl)-1,2,3,4-tetrahydroisoquinoline-1-carboxamido)benzoic acid] is above 8.30. Take `Cc1nnc(-c2cccc(-c3cccc4c3CCN(C(=O)c3cn(-c5cccc(Cl)c5F)nn3)C4C(=O)Nc3ccc(C(=O)O)cc3)c2)o1` (stereo not drawn) [Example 171, 4-(2-(1-(3-chloro-2-fluorophenyl)-1H-1,2,3-triazole-4-carbonyl)-5-(3-(5-methyl-1,3,4-oxadiazol-2-yl)phenyl)-1,2,3,4-tetrahydroisoquinoline-1-carboxamido)benzoic acid]: under setting [1], the pKi was above 8.30.

On to `CN(C)c1ccc(-c2cccc3c2CCN(C(=O)c2cn(-c4cccc(Cl)c4F)nn2)C3C(=O)Nc2ccc(C(=O)O)cc2)cn1` (stereo not drawn) [Example 172, 4-(2-(1-(3-chloro-2-fluorophenyl)-1H-1,2,3-triazole-4-carbonyl)-5-(6-(dimethylamino)pyridin-3-yl)-1,2,3,4-tetrahydroisoquinoline-1-carboxamido)benzoic acid], for which the pKi under setting [1] was above 8.30.

With `NCc1cccc(-c2cccc3c2CCN(C(=O)c2cn(-c4cccc(Cl)c4F)nn2)C3C(=O)Nc2ccc(C(=O)O)cc2)c1` (stereo not drawn) [Example 173, 4-(5-(3-(aminomethyl)phenyl)-2-(1-(3-chloro-2-fluorophenyl)-1H-1,2,3-triazole-4-carbonyl)-1,2,3,4-tetrahydroisoquinoline-1-carboxamido)benzoic acid, TFA salt], the pKi under setting [1] was above 8.30.

For `O=C(O)c1ccc(NC(=O)C2c3cccc(-c4ccc5nccnc5c4)c3CCN2C(=O)c2cn(-c3cccc(Cl)c3F)nn2)cc1` (stereo not drawn) [Example 174, 4-(2-(1-(3-chloro-2-fluorophenyl)-1H-1,2,3-triazole-4-carbonyl)-5-(quinoxalin-6-yl)-1,2,3,4-tetrahydroisoquinoline-1-carboxamido)benzoic acid], the pKi under setting [1] was above 8.30. Take `O=C(O)c1ccc(NC(=O)C2c3cccc(-c4ccc5occc(=O)c5c4)c3CCN2C(=O)c2cn(-c3cccc(Cl)c3F)nn2)cc1` (stereo not drawn) [Example 175, 4-(2-(1-(3-chloro-2-fluorophenyl)-1H-1,2,3-triazole-4-carbonyl)-5-(4-oxo-4H-chromen-6-yl)-1,2,3,4-tetrahydroisoquinoline-1-carboxamido)benzoic acid]: the negative logarithm of the Ki (pKi) under setting [1] is above 8.30. The same measure, in the same setting: the figure for `O=C(O)c1ccc(NC(=O)C2c3cccc(-c4ccc(S(=O)(=O)NC5CC5)cc4)c3CCN2C(=O)c2cn(-c3cccc(Cl)c3F)nn2)cc1` (stereo not drawn) [Example 176, 4-(2-(1-(3-chloro-2-fluorophenyl)-1H-1,2,3-triazole-4-carbonyl)-5-(4-(N-cyclopropylsulfamoyl)phenyl)-1,2,3,4-tetrahydroisoquinoline-1-carboxamido)benzoic acid] is above 8.30; for `CN(C)S(=O)(=O)c1cccc(-c2cccc3c2CCN(C(=O)c2cn(-c4cccc(Cl)c4F)nn2)C3C(=O)Nc2ccc(C(=O)O)cc2)c1` (stereo not drawn) [Example 177, 4-(2-(1-(3-chloro-2-fluorophenyl)-1H-1,2,3-triazole-4-carbonyl)-5-(3-(N,N-dimethylsulfamoyl)phenyl)-1,2,3,4-tetrahydroisoquinoline-1-carboxamido)benzoic acid] it is above 8.30; for `CCOc1ccc(-c2cccc3c2CCN(C(=O)c2cn(-c4cccc(Cl)c4F)nn2)C3C(=O)Nc2ccc(C(=O)O)cc2)cn1` (stereo not drawn) [Example 178, 4-(2-(1-(3-chloro-2-fluorophenyl)-1H-1,2,3-triazole-4-carbonyl)-5-(6-ethoxypyridin-3-yl)-1,2,3,4-tetrahydroisoquinoline-1-carboxamido)benzoic acid, TFA salt] it is above 8.30. Consider `O=C(O)c1ccc(NC(=O)C2c3cccc(-c4ccccc4CN4CCOCC4)c3CCN2C(=O)c2cn(-c3cccc(Cl)c3F)nn2)cc1` (stereo not drawn) [Example 179, 4-(2-(1-(3-chloro-2-fluorophenyl)-1H-1,2,3-triazole-4-carbonyl)-5-(2-(morpholinomethyl)phenyl)-1,2,3,4-tetrahydroisoquinoline-1-carboxamido)benzoic acid, TFA salt], for which the pKi under setting [1] was 8.23. On to `COc1cccc(-c2cccc3c2CCN(C(=O)c2cn(-c4cccc(Cl)c4F)nn2)C3C(=O)Nc2ccc(C(=O)O)cc2)c1F` (stereo not drawn) [Example 180, 4-(2-(1-(3-chloro-2-fluorophenyl)-1H-1,2,3-triazole-4-carbonyl)-5-(2-fluoro-3-methoxyphenyl)-1,2,3,4-tetrahydroisoquinoline-1-carboxamido)benzoic acid], for which the pKi is 8.28. For the molecule `O=C(O)c1ccc(NC(=O)C2c3cccc(-c4cnc5[nH]ccc5c4)c3CCN2C(=O)c2cn(-c3cccc(Cl)c3F)nn2)cc1` (stereo not drawn) [Example 181, 4-(2-(1-(3-chloro-2-fluorophenyl)-1H-1,2,3-triazole-4-carbonyl)-5-(1H-pyrrolo[2,3-b]pyridin-5-yl)-1,2,3,4-tetrahydroisoquinoline-1-carboxamido)benzoic acid, TFA salt], the pKi under setting [1] was above 8.30. The same measure, in the same setting: with `N#Cc1ccc(-c2cccc3c2CCN(C(=O)c2cn(-c4cccc(Cl)c4F)nn2)C3C(=O)Nc2ccc(C(=O)O)cc2)cn1` (stereo not drawn) [Example 182, 4-(2-(1-(3-chloro-2-fluorophenyl)-1H-1,2,3-triazole-4-carbonyl)-5-(6-cyanopyridin-3-yl)-1,2,3,4-tetrahydroisoquinoline-1-carboxamido)benzoic acid, TFA salt] the figure was above 8.30; with `CN(C)c1ncc(-c2cccc3c2CCN(C(=O)c2cn(-c4cccc(Cl)c4F)nn2)C3C(=O)Nc2ccc(C(=O)O)cc2)cn1` (stereo not drawn) [Example 183, 4-(2-(1-(3-chloro-2-fluorophenyl)-1H-1,2,3-triazole-4-carbonyl)-5-(2-(dimethylamino)pyrimidin-5-yl)-1,2,3,4-tetrahydroisoquinoline-1-carboxamido)benzoic acid], above 8.30; with `O=C(O)c1ccc(NC(=O)C2c3cccc(-c4ccc(F)c(C(=O)N5CCCC5)c4)c3CCN2C(=O)c2cn(-c3cccc(Cl)c3F)nn2)cc1` (stereo not drawn) [Example 184, 4-(2-(1-(3-chloro-2-fluorophenyl)-1H-1,2,3-triazole-4-carbonyl)-5-(4-fluoro-3-(pyrrolidine-1-carbonyl)phenyl)-1,2,3,4-tetrahydroisoquinoline-1-carboxamido)benzoic acid], above 8.30. Still for that read-out and setting: the figure for `O=C(O)c1ccc(NC(=O)C2c3cccc(-c4ccncc4)c3CCN2C(=O)c2cn(-c3cccc(Cl)c3F)nn2)cc1` (stereo not drawn) [Example 186, 4-(2-(1-(3-chloro-2-fluorophenyl)-1H-1,2,3-triazole-4-carbonyl)-5-(pyridin-4-yl)-1,2,3,4-tetrahydroisoquinoline-1-carboxamido)benzoic acid, TFA salt] is above 8.30; for `O=C(O)c1ccc(NC(=O)C2c3cccc(C4=CCNCC4)c3CCN2C(=O)c2cn(-c3cccc(Cl)c3F)nn2)cc1` (stereo not drawn) [Example 187, 4-(2-(1-(3-chloro-2-fluorophenyl)-1H-1,2,3-triazole-4-carbonyl)-5-(1,2,3,6-tetrahydropyridin-4-yl)-1,2,3,4-tetrahydroisoquinoline-1-carboxamido)benzoic acid] it is above 8.30; for `NC(=O)Cc1cccc(-c2cccc3c2CCN(C(=O)c2cn(-c4cccc(Cl)c4F)nn2)C3C(=O)Nc2ccc(C(=O)O)cc2)c1` (stereo not drawn) [Example 188, 4-(5-(3-(2-amino-2-oxoethyl)phenyl)-2-(1-(3-chloro-2-fluorophenyl)-1H-1,2,3-triazole-4-carbonyl)-1,2,3,4-tetrahydroisoquinoline-1-carboxamido)benzoic acid] it is above 8.30. Same read-out and setting: the figure for `O=C(O)c1ccc(NC(=O)C2c3cccc(N4CCC(N5CCCC5)CC4)c3CCN2C(=O)c2cn(-c3cccc(Cl)c3F)nn2)cc1` (stereo not drawn) [Example 210, 4-(2-(1-(3-chloro-2-fluorophenyl)-1H-1,2,3-triazole-4-carbonyl)-5-(4-(pyrrolidin-1-yl)piperidin-1-yl)-1,2,3,4-tetrahydroisoquinoline-1-carboxamido)benzoic acid, 2 TFA salt] is above 8.30. Consider `O=C(O)c1ccc(NC(=O)[C@@H]2c3cccc(N4CCN(C5COC5)CC4)c3CCN2C(=O)[C@H]2CC(c3cccc(Cl)c3F)=NO2)cc1` [Example 227, 4-((S)-2-((R)-3-(3-Chloro-2-fluorophenyl)-4,5-dihydroisoxazole-5-carbonyl)-5-(4-(oxetan-3-yl)piperazin-1-yl)-1,2,3,4-tetrahydroisoquinoline-1-carboxamido)benzoic acid, 2 TFA salt], for which the pKi under setting [1] is above 8.30. The same measure, in the same setting: with `O=C(O)c1ccc(NC(=O)[C@H]2c3cccc(N4CCN(C5COC5)CC4)c3CCN2C(=O)[C@H]2CC(c3cccc(Cl)c3F)=NO2)cc1` [Example 228, 4-((R)-2-((R)-3-(3-Chloro-2-fluorophenyl)-4,5-dihydroisoxazole-5-carbonyl)-5-(4-(oxetan-3-yl)piperazin-1-yl)-1,2,3,4-tetrahydroisoquinoline-1-carboxamido)benzoic acid, 2 TFA salt] the figure was above 8.30.

Turning to `COC1CCN(c2cccc3c2CCN(C(=O)C2CCN(c4cccc(Cl)c4)C2)C3C(=O)Nc2ccc(C(=O)O)cc2)CC1` (stereo not drawn) [Example 258, 4-(2-(1-(3-chlorophenyl)pyrrolidine-3-carbonyl)-5-(4-methoxypiperidin-1-yl)-1,2,3,4-tetrahydroisoquinoline-1-carboxamido)benzoic acid, TFA salt], the pKi under setting [2] was 6.90.

As to `COC1CCN(c2cccc3c2CCN(C(=O)C2CCN(c4cccc(Cl)c4)C2)C3C(=O)Nc2ccc(C(=O)O)cc2)CC1` (stereo not drawn) [Example 261, 4-(2-(1-(3-chlorophenyl)pyrrolidine-3-carbonyl)-5-(4-methoxypiperidin-1-yl)-1,2,3,4-tetrahydroisoquinoline-1-carboxamido)benzoic acid, TFA salt], the pKi under setting [2] is 6.02.
